Measurements taken from US20090012133A1, “Polymorphic Form of -Acetic Acid” (SMITHKLINE BEECHAM CORPORATION, priority 2006, published 2009).

What was measured:
[1] = stability of the crystal form at ambient temperatures; format: physicochemical
[2] = hygroscopicity of the crystalline form; format: physicochemical

stability of crystal form [1]: stable
hygroscopic nature of crystalline form [2]: non-hygroscopic
Structure (SMILES): Cc1cc(SCc2sc(-c3ccc(C(F)(F)F)cc3)nc2C)ccc1OCC(=O)O [Form 7, {2-methyl-4-[4-methyl-2-(4-trifluoromethylphenyl)thiazol-5-ylmethylthio]phenoxy}-acetic acid]
